Measured values taken from patent US7018654B2, “Pharmaceutical composition containing an active agent in an amino acid copolymer structure” (New River Pharmaceuticals Inc., priority 1999, dated 2006).

Assays:
[1] = test system: cultured human amniocytes; details: 0.8% solution in alpha-MEM without glutamine, with insulin and transferrin, pH 7.2
[2] = In vitro stability of glutamine by incubation in 0.2 M phosphate buffer at pH 9.0; format: physicochemical; details: pH 9.0, 37° C., same conditions
Method: The product of Example 2 was tested for stability and compared to monomeric glutamine by incubation in 0.2 M phosphate buffer at pH 9.0 as described by Price and Greenstein (J. Biol. Chem. vol. 180. p. 209, 1949), incorporated herein by reference.

[3] = Stability of Gln measured by production of free ammonia in 0.2 M phosphate buffer; format: physicochemical

| Compound | Growth of cultured cells with no addition of monomeric L-glutamine [1] | Stability of glutamine (result in words) [2] | Stability of Gln, production of free ammonia (result in words) [3] |
| --- | --- | --- | --- |
| Glutamic Acid/Glutamine Co-Polymer [Example 19] | support growth of cultured human amniocytes, through multiple passages |  |  |
| NC(=O)CC[C@H](N)C(=O)O [monomeric glutamine, glutamine] |  | extensive degradation to ammonia and pyrrolidonecarboxylic acid | almost completely de-amidated |
